We go through 15 compounds from patent publication US12528774B2, “Thiosemicarbazone compounds and uses thereof” (The Regents of the University of California, priority 2019, dated 2026).

The structures appear in SMILES notation. Where two headings read alike, the source gives them in different places.

In the experiment the test system is MIAPACA2 cells. The experiment can be described thus: Proliferation assay (CellTiter-Glo, 72 h) in MIAPACA2 cells. It counts as cell-based, human. Conditions: for increase in potency under copper supplementation versus non-copper-supplemented IC90: 20 μM CuCl2; for IC90: MIAPACA2, 72 h; for potency relative to non-fluorinated analog: IC90 without copper, analog of same 4′ amine series (HCT1, HCT6 or HCT11). The procedure: IC90 values against MIAPACA2 cells was first determined in normal cell culture conditions (DMEM media and 10% FBS). Compounds were separated into three series (4′ primary amines, 4′ secondary amines, 4′ tertiary amines) to reflect the relative degrees of 4′ amine methylation. […] (Refs 41, 42).
HCT compounds are known to be copper chelators. (Ref. 32). To test whether the compounds described herein were similarly potentiated, the IC90 (+Cu IC90) values were determined against MIAPACA2 cells in media supplemented with physiologically relevant levels of copper (DMEM media+10% FBS+20 μM CuCl2). MIAPACA2 cells were treated with the indicated HCT±20 μM Cu(II) for 72 hours, then cell viability was measured with CellTiter-Glo to determine IC90 values.
(§1) Proliferation assay: Cells were plated in 384-well plates (500 cells/well for adherent cell lines in 30 μl volume). Drugs were serially diluted to the desired concentrations and an equivalent volume of DMSO was added to vehicle control. Following 72 h incubation, ATP content was measured using CellTiter-Glo reagent according to manufacturer's instructions (Promega, CellTiter-Glo Luminescent Cell Viability Assay), and analyzed by SpectraMax luminometer (Molecular Devices). IC50 and IC90 values, concentrations required to inhibit proliferation by 50% and 90% respectively compared to DMSO treated cells, were calculated using Prism 6.0 h (Graphpad Software).
as §1, with “assay.” for “assay:”, “Software). The 430-member protein kinase inhibitor library used for the chemical genomics screen was purchased from Selleckchem, Catalog No. L1200.” for “Software).”
A general note: In ATP-based viability assays light output follows the ATP content of the culture.

The mark [1] stands for this setting: Homo sapiens, MIA PaCa-2, 72 h, DMEM + 10% FBS, no copper supplementation, read-out: IC90.
The mark [2] stands for this setting: DMEM + 10% FBS + 20 μM CuCl2, read-out: +Cu(II) IC90.

The term IC90 denotes the concentration at which the effect reaches the 90% level. As to `CNC(=S)N/N=C/c1nccc2c(NC)cccc12` [HCT9, E)-N-Methyl-2-((5-(methylamino)isoquinolin-1-yl)methylene)hydrazine-1-carbothioamide and (Z)—N-Methyl-2-((5-(methylamino)isoquinolin-1-yl)methylene)hydrazine-1-carbothioamide], the “increase in potency under copper supplementation versus non-copper-supplemented IC90” value was “significantly increased”. In addition, the IC90 under setting [1] was found to be 4240 nM. Under setting [2], the IC90 came out at 607 nM.
As for `CNC(=S)N/N=C/c1nccc2cc(F)ccc12` [HCT8, (E)-2-((6-Fluoroisoquinolin-1-yl)methylene)-N-methylhydrazine-1-carbothioamide], the “potency relative to non-fluorinated analog” value is “significantly more potent”. Besides, the IC90 under setting [1] worked out at 4080 nM. Under setting [2], the IC90 was 233 nM.
Regarding `CNC(=S)N/N=C/c1nccc2ccccc12` [HCT6, (E)-2-(isoquinolin-1-ylmethylene)-N-methylhydrazine-1-carbothioamide, reference compound], the “increase in potency under copper supplementation versus non-copper-supplemented IC90” value is given as 60 fold. For the same compound, the “increase in potency under copper supplementation versus non-copper-supplemented IC90” value (listed as 6) is listed as “significantly increased”. Besides, the IC90 under setting [1] is 18700 nM. For the same compound, the IC90 under setting [2] stood at 331 nM.
For `NC(=S)N/N=C/c1nccc2cc(F)ccc12` [HCT3, (E)-2-((6-Fluoroisoquinolin-1-yl)methylene)hydrazine-1-carbothioamide], the “potency relative to non-fluorinated analog” value was determined as 3 fold. Besides, the IC90 under setting [1] was found to be 5440 nM. For the same compound, the IC90 under setting [2] is 2040 nM.
Take `CNC(=S)N/N=C/c1ncc(F)c2ccccc12` [HCT7, (E)-2-((4-Fluoroisoquinolin-1-yl)methylene)-N-methylhydrazine-1-carbothioamide]: the “potency relative to non-fluorinated analog” value is on record as “significantly more potent”. For the same compound, the IC90 under setting [1] worked out at 2080 nM. Besides, the IC90 under setting [2] was found to be 114 nM.
Consider `CN(C)C(=S)N/N=C/c1nccc2ccccc12` (mixture of isomers) [HCT11, (E)-2-(Isoquinolin-1-ylmethylene)-N,N-dimethylhydrazine-1-carbothioamide and (Z)-2-(Isoquinolin-1-ylmethylene)-N,N-dimethylhydrazine-1-carbothioamide], for which the “increase in potency under copper supplementation versus non-copper-supplemented IC90” value came to 400 fold. Under “listed as 11”, the “increase in potency under copper supplementation versus non-copper-supplemented IC90” value is reported as “significantly increased”. Also, the IC90 under setting [1] came out at 29600 nM. Under setting [2], the IC90 amounted to 73.7 nM.
On to `NC(=S)N/N=C/c1nccc2c(N)cccc12` [HCT5, (E)-2-((5-Aminoisoquinolin-1-yl)methylene)hydrazine-1-carbothioamide, reference compound], for which the “increase in potency under copper supplementation versus non-copper-supplemented IC90” value was “attenuated”. Further, under setting [1], the IC90 was 40500 nM. Besides, the IC90 under setting [2] is 71100 nM.
Turning to `CNc1cccc2c(/C=N/NC(N)=S)nccc12` [HCT4, (E)-2-((5-(Methylamino)isoquinolin-1-yl)methylene)hydrazine-1-carbothioamide, reference compound], the IC90 turned out to be 11500 nM under setting [1] and 5330 nM under setting [2].
The corresponding values for `CNC(=S)N/N=C/c1nccc2c(N)cccc12` (mixture of isomers) [HCT10, 2-((5-Aminoisoquinolin-1-yl)methylene)-N-methylhydrazine-1-carbothioamide and (Z)-2-((5-Aminoisoquinolin-1-yl)methylene)-N-methylhydrazine-1-carbothioamide] are 11200 nM and 7870 nM.
For `[Cl][Cu][Cl]` [Cu(II), CuCl2], the effect on proliferation result (20 μM Cu(II) alone) is reported as “did not affect proliferation at all”.
For `CNc1c(F)ccc2c(/C=N/NC(=S)N(C)C)nccc12` (mixture of isomers) [HCT14, (E)-2-((6-Fluoro-5-(methylamino)isoquinolin-1-yl)methylene)-N,N-dimethylhydrazine-1-carbothioamide and (Z)-2-((6-Fluoro-5-(methylamino)isoquinolin-1-yl)methylene)-N,N-dimethylhydrazine-1-carbothioamide], the IC90 reads like this: under setting [1], 272 nM; under setting [2], 38.4 nM.
`NC(=S)N/N=C/c1ncc(F)c2ccccc12` [HCT2, (E)-2-((4-Fluoroisoquinolin-1-yl)methylene)hydrazine-1-carbothioamide]: the “potency relative to non-fluorinated analog” value was “did not show an increase in potency”. Further, under setting [1], the IC90 is 24600 nM. Moreover, under setting [2], the IC90 was 2060 nM.
Take `NC(=S)N/N=C/c1nccc2ccccc12` [HCT1, (E)-2-(isoquinolin-1-ylmethylene)hydrazine-1-carbothioamide, reference compound]: the “increase in potency under copper supplementation versus non-copper-supplemented IC90” value was 10 fold. In addition, the IC90 under setting [1] is 18100 nM. Also, under setting [2], the 90% effect concentration (IC90) was determined as 2210 nM.
Take `CN(C)C(=S)N/N=C/c1ncc(F)c2ccccc12` (mixture of isomers) [HCT12, (E)-2-((4-Fluoroisoquinolin-1-yl)methylene)-N,N-dimethylhydrazine-1-carbothioamide and (Z)-2-((4-Fluoroisoquinolin-1-yl)methylene)-N,N-dimethylhydrazine-1-carbothioamide]: the “potency relative to non-fluorinated analog” value is on record as “roughly 110 fold”. In addition, the IC90 under setting [1] was 274 nM. Under setting [2], the concentration for an effect of 90% (IC90) was determined as 26.6 nM.
In the case of `CNc1cccc2c(/C=N/NC(=S)N(C)C)ncc(F)c12` (mixture of isomers) [HCT15, (E)-2-((4-Fluoro-5-(methylamino)isoquinolin-1-yl)methylene)-N,N-dimethylhydrazine-1-carbothioamide and (Z)-2-((4-Fluoro-5-(methylamino)isoquinolin-1-yl)methylene)-N,N-dimethylhydrazine-1-carbothioamide], the IC90 under setting [1] came to 327 nM and the IC90 under setting [2] was determined as 42.3 nM.
